In patent publication EP4813989A1, “CRYSTAL, PHARMACEUTICAL COMPOSITION, PREPARATION METHOD THEREFOR, AND USE THEREOF” (TYK Medicines, Inc., priority 2023, dated 2025):

Tests used:
[1] = Solid form stability on standing (XRD/PLM); type: physicochemical; conditions: ambient conditions (room temperature, >20%RH), overnight plus two days
Text: The resulting solid sample was subjected to a corresponding characterization test. An XRD pattern of the sample can be seen in FIG. 8.
A crystal form E sample was obtained by suspending and stirring the amorphous sample prepared in Example 2 in a 1,4-dioxane/n-heptane solvent system at room temperature. XRD results of the sample can be seen in FIG. 9. […] On this basis, it was inferred that the crystal form E was a metastable crystal form.
XRD results of the sample can be seen in FIG. 17.
XRD results of the sample can be seen in FIG. 20. TGA/DSC results can be seen in FIG. 21. […] An ^1H NMR spectrum of the crystal form D was obtained by a test in DMSO-d6, and no obvious solvent residue was observed. […] Based on nuclear magnetic resonance data and heating test results of the sample, it was inferred that the crystal form D was a hydrate crystal form.

[2] = Pharmacokinetic test in SD rats; type: in vivo; conditions: for AUC(0-inf) / AUC(0-t) / Cmax / MRT last / Tmax: rat, plasma, po; for AUC(0-inf) / AUC(0-t) / Cmax / MRT last / Tmax / Plasma concentration: 10 mg/kg; for Plasma concentration: 10 mg/kg p.o., listed as compound represented by formula I (amorphous form)
Method: Experimental animals: healthy adult SD rats, male, 6 in total, divided into two groups, with 3 rats per group, aged 6-8 weeks; and body weight approximately 200-300 g. The rats were fed in rat cages, and fasted (for at least 10 hours) with free access to water one day before the experiment. On the day of experiment, the rats were weighed and marked at the tail respectively. Blank blood samples were collected respectively before drug administration. The blood samples were collected via the tail vein. Drug administration method: intragastric gavage (p.o.): intragastric gavage with drug suspension; preparation of drug suspension: approximately 10 mg of test sample was accurately weighed, dissolved in 5% DMSO (calculated proportion), and vortexed with 10% solutol HS-15 and 85% saline to obtain a suspension with a concentration of 1.0 mg/mL; and the suspension was freshly prepared before use.
Sample collection: the rats were administered a single oral dose of 10mg/kg via intragastric gavage (p.o.). Timing was started immediately after the administration was completed, and blood samples were collected at 0.5, 1, 2, 4, 6, 8, 12 and 24 hours after administration. A volume of 0.1mL of whole blood was collected into EDTA-Na2 anticoagulant tubes, mixed by inverting 3-4 times, centrifuged at 10000 g for 5 minutes at 4°C to separate the plasma, and then the plasma was stored at -80 °C until testing. The blood samples were collected via the tail vein.
Sample preparation: 1) the samples were thawed, and 15 µL of unknown plasma samples before or after administration, standard series solutions, and single blank and double blank samples were respectively transferred into 1.5 mL centrifuge tubes. 2) 15 µL of protein precipitant (methanol) and 400 µL of internal standard solution (verapamil in methanol, approximately 10 ng/mL) were added to each sample sequentially, vortexed for 2 minutes, and then centrifuged at 4°C and 12000 rpm for 10 minutes. 3) The supernatant was collected for LC-MS/MS detection.
Analytical conditions: liquid chromatography conditions: liquid chromatography system: Shimadzu Nexera X2; chromatographic column: Agilent ZORBAX XDB-C18 3.5 (2.1 × 50 mm); column temperature: 35°C; mobile phase: A-5% acetonitrile (0.1% formic acid in water), B-95% acetonitrile (0.1% formic acid in water); injection volume: 3 µL; and
flow rate: 0.5 mL/min. Gradient elution was employed, and an elution program can be seen in the table below.
Mass spectrometry conditions: mass spectrometric analysis was carried out using an electrospray ionization (ESI) source in a positive ion mode with multiple reaction monitoring (MRM). The mass spectrometer ion source parameters and compound detection parameters can be seen in the table below.
PK parameter processing: pharmacokinetic (PK) parameters were calculated according to a plasma concentration from individual plasma concentration and corresponding sampling time data using Phoenix WinNonlin software with a non-compartmental model. (1) The PK parameters used for pharmacokinetic evaluation included: Cmax, AUC0-t, AUC0-∞, Tmax and t1/2.
(2) The parameters used for bioequivalence evaluation: Cmax, AUC0-t and AUC0-∞ were used for the bioequivalence evaluation.
Cmax: maximum plasma concentration measured within specified period, presented as measured value.
Tmax: time measured to reach maximum plasma concentration, presented as measured value. If the maximum value occurred at more than one time point, Tmax was defined as the first time point at which this value was observed.
AUC0-t: area under plasma concentration-time curve from 0 to last time point t.
AUC0-∞: area under plasma concentration-time curve from 0 to infinity. Ct was the last measured concentration, and λz was the terminal elimination rate constant. AUC0−∞ = AUC0−t + (Ct)/(λz)AUC0−∞ = AUC0−t + (Ct)/(λz) [formula]
t1/2: elimination or terminal half-life, estimated by ln2/λz.

[3] = Mean of rats No. 1-3, intragastric gavage at 10 mg/kg
[4] = rat No. 1, intragastric gavage at 10 mg/kg
[5] = rat No. 2, intragastric gavage at 10 mg/kg
[6] = rat No. 3, intragastric gavage at 10 mg/kg
[7] = rats, intragastric gavage 10 mg/kg, Mean

Q: For `C[C@@H](Nc1ccn2ncc(C3=NOC(C)(C)N3)c2n1)c1cc(F)cc(F)c1F` [amorphous form], which Solid form stability [1] is on record?
A: unstable under ambient conditions

Q: And the HL_ [2, 3]?
A: 8.72 h

Q: What about the HL_ [2, 4] of the same compound?
A: 6.05 h

Q: And the HL_ [2, 5]?
A: 17.2 h

Q: What about the HL_ [2, 6] of the same compound?
A: 2.93 h

Q: What about the AUC(0-inf) [2, 3] of the same compound?
A: 1560 ng·h/mL

Q: And the AUC(0-t) [2, 3]?
A: 1080 ng·h/mL

Q: And the Cmax [2, 3]?
A: 151 ng/mL

Q: And the MRT last [2, 3]?
A: 7.55 h

Q: And the Tmax [2, 3]?
A: 6 h

Q: What about the AUC(0-inf) [2, 4] of the same compound?
A: 982 ng·h/mL

Q: What about the AUC(0-t) [2, 4] of the same compound?
A: 894 ng·h/mL

Q: What about the Cmax [2, 4] of the same compound?
A: 87.1 ng/mL

Q: And the MRT last [2, 4]?
A: 7.84 h

Q: And the Tmax [2, 4]?
A: 8 h

Q: What about the AUC(0-inf) [2, 5] of the same compound?
A: 3200 ng·h/mL

Q: What about the AUC(0-t) [2, 5] of the same compound?
A: 1910 ng·h/mL

Q: And the Cmax [2, 5]?
A: 307 ng/mL

Q: What about the MRT last [2, 5] of the same compound?
A: 9.26 h

Q: And the Tmax [2, 5]?
A: 4 h

Q: And the AUC(0-inf) [2, 6]?
A: 487 ng·h/mL

Q: And the AUC(0-t) [2, 6]?
A: 428 ng·h/mL

Q: And the Cmax [2, 6]?
A: 58.3 ng/mL

Q: What about the MRT last [2, 6] of the same compound?
A: 5.56 h

Q: And the Tmax [2, 6]?
A: 6 h

Q: And the AUC(0-t) [2, 7]?
A: 1080 ng·h/mL

Q: What about the Cmax [2, 7] of the same compound?
A: 151 ng/mL

Q: What about the Plasma concentration ([2]; rats, 0.5 h, Mean) of the same compound?
A: 41.0 ng/mL

Q: And the Plasma concentration ([2]; rats, 0.5 h, No. 1)?
A: 44.5 ng/mL

Q: What about the Plasma concentration ([2]; rats, 0.5 h, No. 2) of the same compound?
A: 49.0 ng/mL

Q: And the Plasma concentration ([2]; rats, 0.5 h, No. 3)?
A: 29.4 ng/mL

Q: And the Plasma concentration ([2]; rats, 1 h, Mean)?
A: 22.5 ng/mL

Q: And the Plasma concentration ([2]; rats, 1 h, No. 1)?
A: 20.8 ng/mL

Q: What about the Plasma concentration ([2]; rats, 1 h, No. 2) of the same compound?
A: 21.5 ng/mL

Q: And the Plasma concentration ([2]; rats, 1 h, No. 3)?
A: 25.3 ng/mL

Q: What about the Plasma concentration ([2]; rats, 2 h, Mean) of the same compound?
A: 56.2 ng/mL

Q: And the Plasma concentration ([2]; rats, 2 h, No. 1)?
A: 64.1 ng/mL

Q: What about the Plasma concentration ([2]; rats, 2 h, No. 2) of the same compound?
A: 71.2 ng/mL

Q: What about the Plasma concentration ([2]; rats, 2 h, No. 3) of the same compound?
A: 33.2 ng/mL

Q: And the Plasma concentration ([2]; rats, 4 h, Mean)?
A: 142 ng/mL

Q: And the Plasma concentration ([2]; rats, 4 h, No. 1)?
A: 71.7 ng/mL

Q: And the Plasma concentration ([2]; rats, 4 h, No. 3)?
A: 47.9 ng/mL

Q: And the Plasma concentration ([2]; rats, 6 h, Mean)?
A: 86.2 ng/mL

Q: And the Plasma concentration ([2]; rats, 6 h, No. 1)?
A: 72.4 ng/mL

Q: What about the Plasma concentration ([2]; rats, 6 h, No. 2) of the same compound?
A: 128 ng/mL

Q: What about the Plasma concentration ([2]; rats, 6 h, No. 3) of the same compound?
A: 58.3 ng/mL

Q: What about the Plasma concentration ([2]; rats, 8 h, Mean) of the same compound?
A: 68.7 ng/mL

Q: What about the Plasma concentration ([2]; rats, 8 h, No. 1) of the same compound?
A: 87.1 ng/mL

Q: What about the Plasma concentration ([2]; rats, 8 h, No. 2) of the same compound?
A: 84.3 ng/mL

Q: What about the Plasma concentration ([2]; rats, 8 h, No. 3) of the same compound?
A: 34.7 ng/mL

Q: What about the Plasma concentration ([2]; rats, 12 h, Mean) of the same compound?
A: 24.4 ng/mL

Q: What about the Plasma concentration ([2]; rats, 12 h, No. 1) of the same compound?
A: 18.6 ng/mL

Q: And the Plasma concentration ([2]; rats, 12 h, No. 2)?
A: 40.6 ng/mL

Q: And the Plasma concentration ([2]; rats, 12 h, No. 3)?
A: 14.0 ng/mL

Q: What about the Plasma concentration ([2]; rats, 24 h, Mean) of the same compound?
A: 31.2 ng/mL

Q: And the Plasma concentration ([2]; rats, 24 h, No. 1)?
A: 10.2 ng/mL

Q: What about the Plasma concentration ([2]; rats, 24 h, No. 2) of the same compound?
A: 52.2 ng/mL
